According to patent publication US4015974A, “Amido phosphorothiolates” (priority 1972, dated 1977):

What was measured:
Type in all cases: in vivo
[1] = system: redroot pigweed (Amaranthus retroflexus); assay: Pre-emergence application, herbicidal effect on redroot pigweed (Table 1); design: key: 0: not damaged; 5: completely killed; settings: 20 days after application, score 0-5
In short: (§1)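 Soil treatment after sowing, pre-emergence; wettable powder formulations diluted with water. Greenhouse, 20 d. Score 0 = no damage, 5 = complete kill.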

[2] = system: common purslane (Portulaca oleracea); assay: Pre-emergence application, herbicidal effect on common purslane (Table 1); design: key: 0: not damaged; 5: completely killed; settings: 20 days after application, score 0-5
In short: as §1

rice = assay: Water application, phytotoxicity on rice (Table 2); design: key: 0: no effect; 1: very slightly affected; 2: slightly affected; 3: moderately affected; 4: considerably affected; 5: completely killed; settings: 25 days, score 0-5
In short: (§2)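 Paddy-soil pots flooded to paddy conditions; rice transplanted at 3-leaf stage, barnyard grass sown, broad-leaved weeds germinating spontaneously. Test compounds applied as wettable powder to soil under flooded water. Herbicidal effect and rice phytotoxicity scored 0–5 at 25 days after application.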

[3] = system: broad-leaved weeds, e.g., monochoria, false pimpernel and toothcup; assay: Water application, herbicidal effect on broad-leaved weeds (Table 2); design: key: 0: not damaged; 5: completely killed; settings: 25 days, score 0-5
In short: as §2

[4] = system: barnyard grass (Echinochloa crus-galli); assay: Water application, herbicidal effect on barnyard grass (Table 2); design: key: 0: not damaged; 5: completely killed; settings: 25 days, score 0-5
In short: as §2

[5] = system: common lambsquarter (Chenopodium album); assay: Pre-emergence application, herbicidal effect on common lambsquarter (Table 1); design: key: 0: not damaged; 5: completely killed; settings: 20 days after application, score 0-5
In short: as §1

[6] = system: barnyard grass (Echinochloa crus-galli); assay: Pre-emergence application, herbicidal effect on barnyard grass (Table 1); design: key: 0: not damaged; 5: completely killed; settings: 20 days after application, score 0-5
In short: as §1

radish = assay: Pre-emergence application, herbicidal effect on radish (Table 1); design: key: 0: not damaged; 5: completely killed; settings: 20 days after application, score 0-5
In short: as §1

[7] = system: large crabgrass (Digitaria sanguinalis); assay: Pre-emergence application, herbicidal effect on large crabgrass (Table 1); design: key: 0: not damaged; 5: completely killed; settings: 20 days after application, score 0-5
In short: as §1

Row | SMILES | Herbicidal effect, redroot pigweed ([1]; 10 g./a.) | Herbicidal effect, redroot pigweed ([1]; 20 g./a.) | Herbicidal effect, redroot pigweed ([1]; 40 g./a.) | Herbicidal effect, common purslane ([2]; 10 g./a.) | Herbicidal effect, common purslane ([2]; 20 g./a.) | Herbicidal effect, common purslane ([2]; 40 g./a.) | Phytotoxicity on rice (rice; 10 g/a) | Phytotoxicity on rice (rice; 20 g/a) | Phytotoxicity on rice (rice; 40 g/a) | Herbicidal effects, broad-leaved weeds ([3]; 10 g/a) | Herbicidal effects, broad-leaved weeds ([3]; 20 g/a) | Herbicidal effects, broad-leaved weeds ([3]; 40 g/a) | Herbicidal effects, barnyard grass ([4]; 10 g/a) | Herbicidal effects, barnyard grass ([4]; 20 g/a) | Herbicidal effects, barnyard grass ([4]; 40 g/a) | Herbicidal effect, common lambsquarter ([5]; 10 g./a.) | Herbicidal effect, common lambsquarter ([5]; 20 g./a.) | Herbicidal effect, common lambsquarter ([5]; 40 g./a.) | Herbicidal effect, barnyard grass ([6]; 10 g./a.) | Herbicidal effect, barnyard grass ([6]; 20 g./a.) | also measured
1 | CCOP(=O)(SCC(=O)N1CCCCC1CC)SCC(C)C (stereo not drawn) [Compound 77] | 5 | 5 | 5 | 5 | 5 | 5 | 0 | 0 | 1 | 5 | 5 | 5 | 5 | 5 | 5 | 5 | 5 | 5 | 5 | 5 | Herbicidal effect, barnyard grass ([6]; 40 g./a.): 5; Herbicidal effect, radish (radish; 10 g./a.): 0; Herbicidal effect, radish (radish; 20 g./a.): 0; Herbicidal effect, radish (radish; 40 g./a.): 0; Herbicidal effect, large crabgrass ([7]; 10 g./a.): 5; Herbicidal effect, large crabgrass ([7]; 20 g./a.): 5; Herbicidal effect, large crabgrass ([7]; 40 g./a.): 5
2 | CCCCCSP(=O)(OCC)SCC(=O)N1CCCCC1CC (stereo not drawn) [Compound 78] | 4 | 4 | 5 | 4 | 4 | 5 | 0 | 0 | 0 | 5 | 5 | 5 | 5 | 5 | 5 | 3 | 4 | 5 | 5 | 5 | Herbicidal effect, barnyard grass ([6]; 40 g./a.): 5; Herbicidal effect, radish (radish; 10 g./a.): 0; Herbicidal effect, radish (radish; 20 g./a.): 0; Herbicidal effect, radish (radish; 40 g./a.): 0; Herbicidal effect, large crabgrass ([7]; 10 g./a.): 5; Herbicidal effect, large crabgrass ([7]; 20 g./a.): 5; Herbicidal effect, large crabgrass ([7]; 40 g./a.): 5
3 | CCOP(=O)(SCCC(C)C)SCC(=O)N1CCCCC1CC (stereo not drawn) [Compound 79] | 4 | 5 | 5 | 5 | 5 | 5 | 0 | 0 | 1 | 5 | 5 | 5 | 5 | 5 | 5 | 5 | 5 | 5 | 5 | 5 | Herbicidal effect, barnyard grass ([6]; 40 g./a.): 5; Herbicidal effect, radish (radish; 10 g./a.): 0; Herbicidal effect, radish (radish; 20 g./a.): 0; Herbicidal effect, radish (radish; 40 g./a.): 1; Herbicidal effect, large crabgrass ([7]; 10 g./a.): 5; Herbicidal effect, large crabgrass ([7]; 20 g./a.): 5; Herbicidal effect, large crabgrass ([7]; 40 g./a.): 5
4 | C=C(C)CSP(=O)(OCC)SCC(=O)N1CCCCC1CC (stereo not drawn) [Compound 81] | 5 | 5 | 5 | 5 | 5 | 5 | 0 | 0 | 1 | 5 | 5 | 5 | 5 | 5 | 5 | 5 | 5 | 5 | 5 | 5 | Herbicidal effect, barnyard grass ([6]; 40 g./a.): 5; Herbicidal effect, radish (radish; 10 g./a.): 0; Herbicidal effect, radish (radish; 20 g./a.): 0; Herbicidal effect, radish (radish; 40 g./a.): 1; Herbicidal effect, large crabgrass ([7]; 10 g./a.): 5; Herbicidal effect, large crabgrass ([7]; 20 g./a.): 5; Herbicidal effect, large crabgrass ([7]; 40 g./a.): 5
5 | C=C(Cl)CSP(=O)(OCC)SCC(=O)N1CCCCC1CC (stereo not drawn) [Compound 82] | 4 | 4 | 5 | 3 | 4 | 5 | 0 | 0 | 2 | 5 | 5 | 5 | 5 | 5 | 5 | 4 | 4 | 5 | 5 | 5 | Herbicidal effect, barnyard grass ([6]; 40 g./a.): 5; Herbicidal effect, radish (radish; 10 g./a.): 0; Herbicidal effect, radish (radish; 20 g./a.): 0; Herbicidal effect, radish (radish; 40 g./a.): 1; Herbicidal effect, large crabgrass ([7]; 10 g./a.): 5; Herbicidal effect, large crabgrass ([7]; 20 g./a.): 5; Herbicidal effect, large crabgrass ([7]; 40 g./a.): 5
6 | CCCOP(=O)(SC)SCC(=O)N1CCCCC1CC (stereo not drawn) [Compound 83] | 5 | 5 | 5 | 5 | 5 | 5 | 0 | 0 | 0 | 5 | 5 | 5 | 5 | 5 | 5 | 5 | 5 | 5 | 5 | 5 | Herbicidal effect, barnyard grass ([6]; 40 g./a.): 5; Herbicidal effect, radish (radish; 10 g./a.): 0; Herbicidal effect, radish (radish; 20 g./a.): 1; Herbicidal effect, radish (radish; 40 g./a.): 2; Herbicidal effect, large crabgrass ([7]; 10 g./a.): 5; Herbicidal effect, large crabgrass ([7]; 20 g./a.): 5; Herbicidal effect, large crabgrass ([7]; 40 g./a.): 5
